Experimental data taken from US12377071B2, “Methods of treating conditions related to the S1P1 receptor” (Arena Pharmaceuticals, Inc., priority 2015, dated 2025).

Legend:
male Sprague-Dawley rats = details: cited from earlier work
[1] = tested on: peripheral blood lymphocyte (PBL) counts; assay: Phase 1 single dose study: peripheral blood lymphocyte counts; assay type: in vivo, human
Description: Compound 1 was administered as the L-arginine salt.

subjects = assay: Phase 1 single dose study: safety and tolerability
Description: A phase 1 study with Compound 1 was conducted with single dosing at 0.1 mg, 0.35 mg, 1 mg, 3 mg, and 5 mg. Compound 1 was administered as the L-arginine salt.

O=C(O)C[C@H]1CCc2c1[nH]c1ccc(OCc3ccc(C4CCCC4)c(C(F)(F)F)c3)cc21 [Compound 1, (R)-2-(7-(4-cyclopentyl-3-(trifluoromethyl)benzyloxy)-1,2,3,4-tetrahydrocyclopenta [b]indol-3-yl)acetic acid]
Bradycardia (male Sprague-Dawley rats): no or substantially no bradycardia
Persistence of PBL nadir ([1]; single dose): 24 h
Time after dosing by which total PBL counts were reduced ([1]; single dose): 2 to 4 h
Time of PBL nadir ([1]; single dose): ≤ 8 h
PBL counts reduced by ([1]; single dose 3 mg): ~40%
PBL counts reduced by ([1]; single dose 5 mg): ~55%
Recovery of PBL counts to baseline ([1]; single dose, after the nadir): 4 days
Absolute number of peripheral blood B cells, T cells, NK cells, and all T cell subsets except TEM cells ([1]; single dosing at 3 and 5 mg): dose responsive decline
Vital signs, ECGs, pulmonary function tests, ophthalmoscopy, clinical laboratory tests (subjects; in vivo): no other clinically significant safety issues
Maximum tolerated dose (subjects; single dosing): 3 mg
Deaths or serious adverse events (subjects; single dosing 0.1 to 5 mg): no deaths or serious adverse events
